For one assay, the system named is PC-3 xenograft. On the set-up: method as in PMID 34681843. The note with it: cited from earlier work.
For assay [1], the system named is LAPC-4 cells. Nature of the assay: LAPC-4 cell viability proliferation and combination index assays (MTS, 6 days). Type of assay: cell-based, human. The procedure: LAPC-4 cells (1 × 10^4 cells/well) were seeded in triplicate in 96-well plates in IMDM (Iscove’s modified Dulbecco’s medium) (90 μL) supplemented (v/v) with 5% fetal FBS, 1% L-glutamine, 1% insulin, and 1% penicillin/streptomycin. The cells were incubated at 37 °C in a 5% CO2 humidified atmosphere for 24 h. […] After 6 days of incubation, the cell proliferation was determined by adding 10 µL of MTS followed by incubation at 37 °C for 4 h. Plates were then analyzed at 490 nm using a Tecan M-200 microplate reader (Männedorf, Switzerland). Using GraphPad Prism 7 software, the IC50 values were calculated. The values represent the average of two independent experiments performed in triplicate. According to the Chou–Talalay method and using the following formula, the CI (combination) was calculated. CI=(D)1/(DX)1+(D)2/(DX)2
Denominators (DX)l and (DX)2 are the doses of individual drugs required to achieve a given effect level, and numerators (D)1 and (D)2 are the concentrations of each drug present in combination to trigger the same effect level. When the drugs interact additively, CI = 1, but a CI < 1 indicates a synergistic interaction, and a CI > 1 indicates an antagonistic effect.

Assay [2] relates to LAPC-4 cells. Described as above. The conditions noted are these: Homo sapiens, LAPC4, 144 h, LAPC-4, six days of treatment; read-out: IC50, mean of three experiments (Figure 2A). In kind it is cell-based.
The test system of a further assay is LAPC-4 xenografts. From the text:
The xenograft experiment was approved by the Université Laval Animal Care Committee (Comité de Protection des Animaux de l’Université Laval, Québec, QC, Canada) and carried out in an animal facility approved by the Canadian Council on Animal Care (CCAC). Homozygous male Balb/c athymic nude mice (~42 days old, weighing approximately 28 g) were obtained from Charles River Inc. (Saint-Constant, QC, Canada) and housed (4 to 5) in vinyl micro-isolated ventilated cages equipped with air lids. Cages were kept in laminar airflow hoods and maintained in pathogen-limiting conditions. The animals were housed under a controlled environment at 22 ± 3 °C with 50 ± 20% relative humidity and light set at 12 h/day (light on at 07:15) during the acclimatization and study periods. Sterile water and rodent food (Rodent Diet #T.2018.15, Harlan Teklad, Madison, WI, USA) were provided ad libitum.
After an acclimatization period of 5 days, the mice were inoculated into both flanks by subcutaneous (SC) injection of 4 × 10^6 LAPC-4 cells (Passage 14) in 0.1 mL of growth medium containing 50% Matrigel (BD Biosciences, Mississauga, ON, Canada) via a 2.5-cm long 22-gauge needle. Two weeks later, mice that developed tumors were randomized according to tumor volume, divided into […] groups (Gr-1 to Gr-8), and treated over a period of 28 days. A bilateral orchiectomy was performed under isoflurane-induced anesthesia for Gr-1 but not for Gr-2 to Gr-8. Both Gr-1 (CTX control (CTL), 9 mice, 16 tumors) and Gr-2 (intact CTL, 9 mice, 18 tumors) were treated with 0.1 mL of the vehicle alone (8% DMSO/92% propylene glycol (PG) administered by gavage (PO). Gr-3 (30 mg/kg/PO, 10 mice, 19 tumors) received 0.843 mg of RM-581. Gr-4 (10 mg/kg/PO, 10 mice, 20 tumors) received 0.281 mg of RM-581. Gr-5 (3 mg/kg/PO, 10 mice, 18 tumors) received 0.084 mg of RM-581. Gr-6 (60 mg/kg/SC, 9 mice, 18 tumors) received 1.686 mg of abiraterone. Gr-7 (60 mg/kg/PO, 9 mice, 17 tumors) received 1.686 mg of abiraterone acetate. Gr-8 (4 mg/kg/IP, 9 mice, 17 tumors) received 0.112 mg of docetaxel.
RM-581 and abiraterone acetate were administered six days a week PO; abiraterone was administered six days a week SC; and docetaxel was administered twice a week by intraperitoneal (IP) injection. RM-581 was first dissolved in DMSO, and thereafter we added PG to obtain the appropriate concentration in the vehicle fluid (8% DMSO/92% PG). Abiraterone acetate and abiraterone were dissolved in 0.3% hydroxypropyl cellulose in saline (0.9% NaCl), while docetaxel was first dissolved in DMSO, and thereafter we added phosphate-buffered saline (PBS) to obtain the proper concentration in the carrier fluid (0.5% DMSO/99.5% PBS). All solutions were prepared one day prior to the initiation of treatment and stored at 4 °C under constant agitation.
The mice were weighed at the start and end of the protocol. Tumor area (mm^2) was calculated twice a week using two perpendicular diameters (L and W), which were recorded using a caliper, and the formula L/2 × W/2 × π. The area measured on the first day of treatment was fixed at 100%. At the end of the studies and 3 h after the last treatment, the mice were terminally anesthetized, and their final body weights were measured. Tumors, liver, kidney, and total prostate were collected from mice during necropsy, while blood was collected by cardiac puncture. Tissues and plasma were immediately frozen at −80 °C until analysis.

For a further assay, the system named is VCaP. Nature of the assay: PCa cell viability proliferation screening (MTS), VCaP. In kind it is cell-based. The conditions noted are these: Homo sapiens, 168 h, AR positive, seven days. The procedure:
VCaP (4 × 10^4 cells/well) were seeded in 96-well plates in DMEM media supplemented with 10% fetal bovine serum (FBS), penicillin, streptomycin, and sodium pyruvate. 22Rv1 cells (2 × 10^3 cells/well) and LAPC-4 cells (6 × 10^3 cells/well) were seeded in 96-well plates in RPMI media supplemented with 10% FBS, penicillin, streptomycin, and sodium pyruvate. The cells were incubated at 37 °C in a 5% CO2 humidified atmosphere for 24 h before treatment with multiple concentrations of RM-581 dissolved in dimethyl sulfoxide (DMSO). The concentrations used were between 0.01 μM and 50 μM. Treatment lasted for 3 days for all the cell lines except VCaP cells, which were treated for 7 days due to slower proliferation rates. At the end of the assay, 20 μL of MTS (Cell Titer 96 Aqueous, Promega, Nepean, ON, Canada) were added to each well, and the mixture was incubated for 4 h at 37 °C. The plates were subsequently analyzed at 490 nm using a Tecan M-200 microplate reader (Männedorf, Switzerland).

Structures are written as SMILES. “And” between values parts separate entries of the source, which are not always exact repeats. Equal entries are not always repeated. Where two headings read alike, the source gives them in different places.

One may read the IC50 as the midpoint of a concentration-inhibition curve.

As for `C#C[C@]1(O)CC[C@H]2[C@@H]3CCc4cc(OC)c(N5CCN(C(=O)[C@@H]6CCCN6C(=O)c6ccc7ccccc7n6)CC5)cc4[C@H]3CC[C@@]21C` [RM-581], in the assay with PC-3 xenograft (PC-3 xenograft, PO), the “effective oral dose for tumor regression” value is recorded as 60 mg/kg. Also, the “FA and cholesterol in tumors” value in the assay with PC-3 xenograft (tumors from PC-3 xenografts) is recorded as “significant decrease”. Also, the IC50 in the assay with LAPC-4 cells [1] (Homo sapiens, LAPC4, 144 h, LAPC-4, six days of treatment, read-out: IC50, single experiments (Figure 2A)) was 450 nM; in the assay with LAPC-4 cells [1] (Homo sapiens, LAPC4, 144 h, LAPC-4, six days, slightly different culture conditions, read-out: IC50, single experiments (Figure 3)) it was 510 nM; in the assay with LAPC-4 cells [1] (Homo sapiens, LAPC4, 144 h, LAPC-4, six days, slightly different culture conditions, read-out: Mean IC50 (Figure 3)), 570 ± 140 nM; in the assay on LAPC-4 cells [1] (Homo sapiens, LAPC4, 144 h, LAPC-4, six days, single drugs and 1:1 combinations, read-out: IC50 (Figure 2B)), 560 nM; in the assay with LAPC-4 cells [1] (Homo sapiens, LAPC4, LAPC-4, read-out: IC50 in LAPC-4 cells, approximate summary value), approximately 500 nM; in the assay on LAPC-4 cells [1] (LAPC-4, six days of treatment, read-out: IC50, single experiments (Figure 2A)) it was 300 nM and 550 nM. In addition, the IC50 with LAPC-4 cells [1] (LAPC-4, six days, slightly different culture conditions, read-out: IC50, single experiments (Figure 3)) was 470 nM and 730 nM; with LAPC-4 cells [2], 430 ± 130 nM; with VCaP, 5780 nM. Also, the “time to significant difference with intact (untreated) group” value with LAPC-4 xenografts (3 mg/kg PO) was found to be 14 days; with LAPC-4 xenografts (10 mg/kg PO) it was 7 days; in the assay with LAPC-4 xenografts (30 mg/kg PO), 7 days. Further, the tumor growth entry in the assay with LAPC-4 xenografts (3 mg/kg PO, 6 days per week) is on record as “tumors returned to their original size after 22 days”. Moreover, the “tumor size compared with 30 mg/kg group” value with LAPC-4 xenografts (10 mg/kg PO, 6 days per week, day 28) is reported as “identical at the end of the protocol”. In the assay on LAPC-4 xenografts (30 mg/kg PO, 6 days per week, day 28), the “reduction in the initial tumor size at end of protocol” value was 88%. In addition, in the assay with LAPC-4 xenografts (LAPC-4 xenograft, PO), the “effective oral doses for tumor regression” value lay within 3 to 30 mg/kg.

These data come from article PMC10252594 (Cancers, 2023).
